Data: US20140357713A1, “ANTIMICROBIAL COMPOUNDS AND METHODS OF USE” (NexMed Holdings, Inc., priority 2012, published 2014)
Counter-ions that a name gives are not always drawn. Like-named read-outs stand apart in the source and are kept apart here.

What was measured:
[1] = Solubility (Sol., Table 1); assay type: physicochemical
[2] = pH (Table 1); assay type: physicochemical
[3] = system: Staphulococcus aureus (ATCC 29213); test: Minimum inhibitory concentration (MIC) assay, Example 33; assay type: cell-based, Staphylococcus aureus; settings: Staphylococcus aureus
Protocol: (§1) Thirty compounds were tested for antimicrobial activity using standard procedures and standard strains for both the minimum inhibitory concentration (MIC) assay and a time kill study. Both the MIC assay and the time kill study were performed according to Clinical and Laboratory Standards Institute (CLSI) guidelines. Three bacteria strains, Escherichia coli (ATCC 25922), Pseudomonas aeruginosa (ATCC 27853), Staphulococcus aureus (ATCC 29213), and two fungus strains, Candida albicans (ATCC 90029) and Aspergillus niger (CMCC 98003), were used in the experiments.
(§2) Preparation of cultures. Before the experiment, two days for the bacteria strains and five days for fungus strains, an aliquot was removed from the cultures frozen at −80° C. Medium was added to the surface of an appropriate agar plate and streaked with the aliquot. The plate was incubated for 20 to 24 hrs at 35±2° C. for bacteria or for 5 days at 26-30° C. in incubator for fungus. From the resulting growth on each plate, one isolated colony of similar morphology was selected and re-streaked onto a fresh agar plate using a sterile disposable loop. The plate was incubated 20 to 24 hrs at 35±2° C. or for 5 days at 26-30° C. in an incubator.
(§3) Preparation of Assay Plates with Medium and Drugs. On the day of the assay, CAMHB medium or RPMI 1640 medium was removed from 4′C storage and allowed to reach room temperature. Ninety microliters (μL) of room temperature CAMHB or RPMI 1640 (supplemented with the appropriate concentration of DMSO, if required) were added to rows B-G of each 96-well microtiter plate. Using a pipette, duplicate 180 μL aliquots of each drug stock solution were added to column 1 (e.g. A1 and B1 or C1 and D1 or E1 and F1 or G1 and H1). Using a multichannel pipette or the Provision 2000 liquid handler, serial 2-fold dilutions (90 μL) were performed in each row across the plate to row G. Eighty μL of compounds dilutions were transferred to a 96-deep well plate. Medium, 1,520 μL of CAMHB or RPMI 1640, was added to each well. The contents of the wells were mixed thoroughly. A 50 μL aliquot of each of the resulting mixtures was transferred to a 96-well assay plate.
(§4) For bacteria, a sterile inoculating loop was used to transfer growth from an agar plate culture into about 5 mL of test medium. Using a turbidity meter, this inoculum was adjusted so that its density (600 nm) was equivalent to a 0.5 McFarland barium sulfate standard (0.08-0.13). The resulting suspension was diluted 1:100 into medium to obtain two times test inoculums.
(§5) For Aspergillus niger, sporulating colonies were covered with RPMI 1640, and a suspension was prepared by gently probing the colonies with the tip of a transfer pipette. The suspension was transferred to a sterile tube and mixed with a vortex mixer for 15 seconds. The densities at 530 nm were adjusted to 0.09-0.13 for each sample. The resulting suspension was diluted 1:50 with the medium to obtain two times test inoculums. Fifty μL/well of this inoculum suspension was added to wells of drug-containing plates (1:2 dilution). Plates were incubated at 35° C. for the appropriate times. The MIC was read and recorded according to CLSI guidelines.
(§6) The MIC values for thirty compounds against Escherichia coli, Pseudomonas aeruginosa, Staphulococcus aureus, Candida albicans, and Aspergillus niger were recorded and are presented in Table 3 and Table 4.

[4] = system: Candida albicans (ATCC 90029); test: as above; assay type: cell-based; settings: Candida albicans
Protocol: as §1, §2, §3
For Candida albicans, a sterile inoculating loop was used to transfer growth from an agar plate culture into a tube with RPMI1640 medium. This inoculum was adjusted so that its density at 530 nm was in the ranges from 0.08 to 0.13. The resulting suspension was diluted 1:50 and further diluted 1:20 with the medium to obtain two times test inoculums.
as §5, §6

[5] = system: Aspergillus niger (CMCC 98003); test: as above; assay type: cell-based; settings: for MIC: Aspergillus niger; for MIC Aspergillus niger: n = 2
Protocol: as §1, §2, §3, §5, §6

[6] = system: Pseudomonas aeruginosa (ATCC 27853); test: as above; assay type: cell-based; settings: Pseudomonas aeruginosa
Protocol: as §1, §2, §3, §4, §5, §6

[7] = system: Escherichia coli (ATCC 25922); test: as above; assay type: cell-based; settings: Escherichia coli
Protocol: as §1, §2, §3, §4, §5, §6

[8] = system: Pseudomonas aeruginosa (ATCC 27853); test: Time kill study, Example 33 (0 to 5 min); assay type: cell-based; settings: 1×MIC
Protocol: as §1
(§7) The viable counts in Log10 CFU/mL at each time point were recorded.
(§8) Time kill studies. Strain suspensions were prepared as described above for the MIC test, and strain suspensions and compound solutions were mixed in the same volume. Samples were removed at specified times including 0 min, 30 sec, 1 min and 5 mins, were diluted in the test medium and streaked on agar. Colonies were counted after 24 to 48 hrs of incubation. […]

[9] = system: Staphylococcus aureus (ATCC 29213); test: Time kill study, Example 33 (0 to 5 min); assay type: cell-based; settings: 1×MIC
Protocol: as §1, §7, §8

[10] = system: Escherichia coli (ATCC 25922); test: Time kill study, Example 33 (0 to 5 min); assay type: cell-based; settings: 1×MIC
Protocol: as §1, §7, §8

[11] = ATCC29213, read-out: MIC S. aureus, n = 1
[12] = ATCC29213, read-out: MIC S. aureus, n = 2
[13] = ATCC90029, read-out: MIC Candida albicans, n = 1
[14] = ATCC90029, read-out: MIC Candida albicans, n = 2
[15] = CMCC98003, read-out: MIC Aspergillus niger
[16] = ATCC27853, read-out: MIC P. aeruginosa, n = 1
[17] = ATCC27853, read-out: MIC P. aeruginosa, n = 2
[18] = ATCC25922, Table 19 summary of Example 33 and Example 35
[19] = ATCC25922, read-out: MIC E. coli, n = 1
[20] = ATCC25922, read-out: MIC E. coli, n = 2

CCCCCCCCCCCCOC(=O)C(C)(C)N(C)C [Nex-58, Dodecyl 2-(dimethylamino)-2-methylpropanoate hydrochloride]
Sol. [1]: 51% | pH [2]: 2.27 | MIC [3, 11]: 3130 µg/mL | MIC [3, 12]: 1560 µg/mL | MIC ([4]; ATCC90029, Table 19 summary): > 12500 µg/mL | MIC [4, 13]: > 12500 µg/mL | MIC [4, 14]: > 12500 µg/mL | MIC ([5]; CMCC98003): > 12500 µg/mL | MIC [5, 15]: > 12500 µg/mL | MIC Aspergillus niger [5]: >12500 µg/mL | MIC ([6]; ATCC27853, Table 19 summary): 6250 µg/mL | MIC [6, 16]: 6250 µg/mL | MIC [6, 17]: 6250 µg/mL | MIC [7, 18]: 3130 µg/mL | MIC [7, 19]: 3130 µg/mL | MIC [7, 20]: 3130 µg/mL | Viable counts, Pseudomonas aeruginosa time kill study ([8]; 0.5 min): <4.0 Log10 CFU/mL | Viable counts, Pseudomonas aeruginosa time kill study ([8]; 1 min): <3.70 Log10 CFU/mL | Viable counts, Pseudomonas aeruginosa time kill study ([8]; 5 min): <3.52 Log10 CFU/mL | Viable counts, Pseudomonas aeruginosa time kill study ([8]; time 0): 5.54 Log10 CFU/mL | Viable counts, Staphylococcus aureus time kill study ([9]; 0.5 min): 6.15 Log10 CFU/mL | Viable counts, Staphylococcus aureus time kill study ([9]; 1 min): 6.11 Log10 CFU/mL | Viable counts, Staphylococcus aureus time kill study ([9]; 5 min): 5.81 Log10 CFU/mL | Viable counts, Staphylococcus aureus time kill study ([9]; time 0): 6.26 Log10 CFU/mL | Viable counts, Escherichia coli time kill study ([10]; 0.5 min): <4.0 Log10 CFU/mL | Viable counts, Escherichia coli time kill study ([10]; 1 min): <3.70 Log10 CFU/mL | Viable counts, Escherichia coli time kill study ([10]; 5 min): <3.52 Log10 CFU/mL | Viable counts, Escherichia coli time kill study ([10]; time 0): 5.91 Log10 CFU/mL

CCCCCCCCCCCCCCOC(=O)C(C)N(C)C (stereo not drawn) [Nex-66, Tetradecyl 2-(dimethylamino)propanoate hydrochloride]
Sol. [1]: 48% | pH [2]: 2.35 | MIC ([3]; ATCC29213, Table 19 summary): 3130 µg/mL | MIC [3, 11]: 3130 µg/mL | MIC [3, 12]: 3130 µg/mL | MIC ([4]; ATCC90029, Table 19 summary): > 12500 µg/mL | MIC [4, 13]: > 12500 µg/mL | MIC [4, 14]: > 12500 µg/mL | MIC ([5]; CMCC98003): > 12500 µg/mL | MIC [5, 15]: > 12500 µg/mL | MIC Aspergillus niger [5]: >12500 µg/mL | MIC ([6]; ATCC27853, Table 19 summary): 6250 µg/mL | MIC [6, 16]: 6250 µg/mL | MIC [6, 17]: 6250 µg/mL | MIC [7, 18]: 3130 µg/mL | MIC [7, 19]: 3130 µg/mL | MIC [7, 20]: 3130 µg/mL | Viable counts, Pseudomonas aeruginosa time kill study ([8]; 0.5 min): 5.91 Log10 CFU/mL | Viable counts, Pseudomonas aeruginosa time kill study ([8]; 1 min): 5.68 Log10 CFU/mL | Viable counts, Pseudomonas aeruginosa time kill study ([8]; 5 min): 5.56 Log10 CFU/mL | Viable counts, Pseudomonas aeruginosa time kill study ([8]; time 0): 5.64 Log10 CFU/mL | Viable counts, Staphylococcus aureus time kill study ([9]; 0.5 min): 6.5 Log10 CFU/mL | Viable counts, Staphylococcus aureus time kill study ([9]; 1 min): 6.41 Log10 CFU/mL | Viable counts, Staphylococcus aureus time kill study ([9]; 5 min): 6.39 Log10 CFU/mL | Viable counts, Staphylococcus aureus time kill study ([9]; time 0): 6.27 Log10 CFU/mL | Viable counts, Escherichia coli time kill study ([10]; 0.5 min): 5.91 Log10 CFU/mL | Viable counts, Escherichia coli time kill study ([10]; 1 min): 6.03 Log10 CFU/mL | Viable counts, Escherichia coli time kill study ([10]; 5 min): 5.81 Log10 CFU/mL | Viable counts, Escherichia coli time kill study ([10]; time 0): 5.7 Log10 CFU/mL
